In publication PMC3389674, “Comparison of Soluble Guanylate Cyclase Stimulators and Activators in Models of Cardiovascular Disease Associated with Oxidative Stress” (Frontiers in Pharmacology, 2012):
Like-named read-outs stand apart in the source and are kept apart here.

How the values were obtained:
SHR-SP isolated aorta [1] = assay: direct vasodilatory effects in aorta isolated from ND and HSFD SHR-SP; parameters: species or system rat; details: for EC50: read-out: EC50, direct vasodilation
Description: (§1) In separate studies, endothelial function was assessed following chronic (7 week) BAY 60-4552 or GSK2181236A treatment in SHR-SP on HSFD. SHR-SP fed either normal or HSFD served as controls. Rats were anesthetized and thoracic aorta were isolated and treated with KCl and phenylephrine as described above. Cumulative concentration-response curves to phenylephrine were obtained by adding 0.5 log unit increments (1 nM to 3 μM). Following several washes with KHB, each vessel was contracted to equilibrium with 0.3 μM phenylephrine and tone was reversed by adding cumulative amounts of carbachol at 0.5 log unit intervals (10 nM to 30 μM). Following several KHB washes, the tissues were again contracted to equilibrium with 0.3 μM phenylephrine and tone was reversed by adding cumulative amounts of SNP at 0.5 log unit intervals (0.1 nM to 3 μM). In separate tissues from both the normal and HSFD SHR-SP control groups, the direct vasodilatory effects of BAY 60-4552 and GSK2181236A were investigated. Contractile tone induced by 0.3 μM phenylephrine was reversed by adding cumulative concentrations of BAY 60-4552 or GSK2181236A to the tissue baths at log increments (0.1 nM to 10 μM).

SHR-SP isolated aorta [2] = assay: vasoactivity of SHR-SP isolated aorta (ND, HSFD and after chronic treatment); parameters: species or system rat
Description: as §1

rat sGC = target: T1, rat sGC (Rattus norvegicus, UniProt P20595); assay: primary cell-free rat sGC enzyme assay (cGMP formation); type: biochemical; details: data not shown
T1 sequence (P20595 1-619): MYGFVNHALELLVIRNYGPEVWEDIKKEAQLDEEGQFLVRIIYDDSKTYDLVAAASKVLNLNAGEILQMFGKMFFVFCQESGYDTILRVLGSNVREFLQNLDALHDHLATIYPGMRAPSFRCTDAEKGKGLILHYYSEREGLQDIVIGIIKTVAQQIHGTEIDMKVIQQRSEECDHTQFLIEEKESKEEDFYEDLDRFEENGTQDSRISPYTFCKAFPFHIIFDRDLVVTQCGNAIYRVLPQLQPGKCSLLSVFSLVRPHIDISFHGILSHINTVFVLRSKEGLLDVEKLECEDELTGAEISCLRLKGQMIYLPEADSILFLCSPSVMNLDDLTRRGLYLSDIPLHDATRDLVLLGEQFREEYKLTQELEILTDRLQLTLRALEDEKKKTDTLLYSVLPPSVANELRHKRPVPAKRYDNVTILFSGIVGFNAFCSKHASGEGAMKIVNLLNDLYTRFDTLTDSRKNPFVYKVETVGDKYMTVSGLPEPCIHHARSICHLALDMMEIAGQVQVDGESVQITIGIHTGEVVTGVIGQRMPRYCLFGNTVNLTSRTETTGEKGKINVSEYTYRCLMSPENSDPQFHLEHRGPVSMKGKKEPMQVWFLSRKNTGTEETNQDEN
T1 sequence (P19686 1-690 partner): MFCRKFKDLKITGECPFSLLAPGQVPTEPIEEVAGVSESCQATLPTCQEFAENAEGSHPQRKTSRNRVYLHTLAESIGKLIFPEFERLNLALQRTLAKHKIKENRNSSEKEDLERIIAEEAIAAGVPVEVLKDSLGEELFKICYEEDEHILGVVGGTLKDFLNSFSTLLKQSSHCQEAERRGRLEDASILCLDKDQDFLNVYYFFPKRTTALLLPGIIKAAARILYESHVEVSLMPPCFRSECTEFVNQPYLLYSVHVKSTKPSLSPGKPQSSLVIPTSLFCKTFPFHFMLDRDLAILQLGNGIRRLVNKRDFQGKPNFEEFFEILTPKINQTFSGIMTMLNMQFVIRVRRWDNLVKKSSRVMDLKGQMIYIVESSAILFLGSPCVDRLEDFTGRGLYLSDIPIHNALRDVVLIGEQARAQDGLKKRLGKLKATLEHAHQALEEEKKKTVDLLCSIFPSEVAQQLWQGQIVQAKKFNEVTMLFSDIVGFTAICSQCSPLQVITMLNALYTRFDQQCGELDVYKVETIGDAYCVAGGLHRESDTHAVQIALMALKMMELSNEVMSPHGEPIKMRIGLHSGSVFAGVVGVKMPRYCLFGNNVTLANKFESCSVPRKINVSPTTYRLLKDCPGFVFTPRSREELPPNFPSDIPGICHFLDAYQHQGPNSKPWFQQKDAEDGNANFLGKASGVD

[3] = system: all other proteins tested (human enzymes, ion channels, transporters, and G-protein-coupled receptors); assay: in vitro selectivity profile: cell-based functional assays, other non-sGC proteins
Description: The secondary pharmacological profile (i.e., sGC-independent activity) of GSK2181236A was assessed in cell-based functional assays by characterizing the interaction between GSK2181236A and 38 distinct human enzymes, ion channels, transporters, and G-protein-coupled receptors including 5-HT (5-HT1B/2A/2C/3), 5-HT transporter (SERT), adenosine (A2a), adrenergic (α1B/2C, β2), Aurora B kinase, cycoloxygenase-2 (COX-2), CaV1.2, cytochrome P450 (CYP2C19, 2D6, and 3A4), dopamine (D2), dopamine transporter (DAT), gamma-aminobutyric acid (GABAA), glycogen synthase kinase-3 (GSK3β) histamine (H1), KV1.5, KV7.1, KV11.1, lymphocyte-specific protein tyrosine kinase (LCK), L-monoamine oxidase (MAO-B) muscarinic (M1/2), NaV1.5, nicotinic (α1 nAChR), noradrenaline transporter (NET), opioid (κ, μ), organic anion transporting polypeptide C (OATP1B1), phosphodiesterase 5 (PDE5), phosphatidylinositol 3-kinase (PI3Kγ), pregnane X receptor (PXR), tachykinin (NK1), and vasopressin (V1a).

[4] = HSFD + 0.3 mg/kg chronic treatment
[5] = HSFD + 3 mg/kg chronic treatment
[6] = HSFD + 0.1 mg/kg chronic treatment
[7] = HSFD + 1 mg/kg chronic treatment

SMILES: COC(=O)Nc1c(N)nc(-c2nn(Cc3ccccc3F)c3ncccc23)nc1N [BAY 60-4552]
- Emax, direct vasodilation (SHR-SP isolated aorta [1]; aorta from HSFD SHR-SP): 111 ± 2 % vasodilation
- EC50 (SHR-SP isolated aorta [1]; aorta from HSFD SHR-SP): 54 ± 14 nM
- Emax, direct vasodilation (SHR-SP isolated aorta [1]; aorta from ND SHR-SP): 110 ± 2 % vasodilation
- EC50 (SHR-SP isolated aorta [1]; aorta from ND SHR-SP): 75 ± 16 nM
- Carbachol Emax in aorta of chronically treated rats (SHR-SP isolated aorta [2]; [4]): 54 ± 6 % reversal of PE tone
- Phenylephrine Emax in aorta of chronically treated rats (SHR-SP isolated aorta [2]; [4]): 88 ± 6 % KCl
- Sodium nitroprusside Emax in aorta of chronically treated rats (SHR-SP isolated aorta [2]; [4]): 98 ± 5 % reversal of PE tone
- Carbachol Emax in aorta of chronically treated rats (SHR-SP isolated aorta [2]; [5]): 67 ± 6 % reversal of PE tone
- Phenylephrine Emax in aorta of chronically treated rats (SHR-SP isolated aorta [2]; [5]): 89 ± 7 % KCl
- Sodium nitroprusside Emax in aorta of chronically treated rats (SHR-SP isolated aorta [2]; [5]): 112 ± 3 % reversal of PE tone

SMILES: Cc1cc(-c2ccc(OC(F)(F)F)cc2)ccc1COc1ccccc1-c1cccc(-n2ncc(C(=O)O)c2C(F)(F)F)n1 [GSK2181236A, 1-(6-{2-[({3-methyl-4′-[(trifluoromethyl)oxy]-4-biphenylyl}methyl)oxy]phenyl}-2-pyridinyl)-5-(trifluoromethyl)-1H-pyrazole-4-carboxylic acid]
- EC50 (SHR-SP isolated aorta [1]; Rattus norvegicus, aorta from HSFD SHR-SP): 321 ± 168 nM
- EC50 (SHR-SP isolated aorta [1]; Rattus norvegicus, aorta from ND SHR-SP): 270 ± 70 nM
- Emax, direct vasodilation (SHR-SP isolated aorta [1]; aorta from HSFD SHR-SP): 110 ± 7 % vasodilation
- Emax, direct vasodilation (SHR-SP isolated aorta [1]; aorta from ND SHR-SP): 110 ± 3 % vasodilation
- Carbachol Emax in aorta of chronically treated rats (SHR-SP isolated aorta [2]; [6]): 48 ± 14 % reversal of PE tone
- Phenylephrine Emax in aorta of chronically treated rats (SHR-SP isolated aorta [2]; [6]): 93 ± 8 % KCl
- Sodium nitroprusside Emax in aorta of chronically treated rats (SHR-SP isolated aorta [2]; [6]): 111 ± 3 % reversal of PE tone
- Carbachol Emax in aorta of chronically treated rats (SHR-SP isolated aorta [2]; [7]): 59 ± 4 % reversal of PE tone
- Phenylephrine Emax in aorta of chronically treated rats (SHR-SP isolated aorta [2]; [7]): 91 ± 8 % KCl
- Sodium nitroprusside Emax in aorta of chronically treated rats (SHR-SP isolated aorta [2]; [7]): 100 ± 2 % reversal of PE tone
- EC50 (rat sGC): 27 nM
- Interactions (EC50s or IC50s) at all other proteins tested [3]: ≥ 2500 nM
- interaction with sGC more potent than any other non-sGC protein tested ([3]; cell-based assays): at least 23 fold
- selectivity for sGC over all other tested proteins ([3]; vs P-VASP EC50 12.7 nM): ≥ 197 fold
